Patent US20250042876A1, “HERBICIDAL PYRAZOLE PYRIMIDINE COMPOUNDS” (SYNGENTA CROP PROTECTION AG, priority 2021, published 2025)

Legend:
Format in all cases: in vivo
Conditions in all cases: 250 g/ha, evaluated after 13 days
[1] = system: Amaranthus palmeri (AMAPA); assay: Post-emergence herbicidal test, glasshouse
Description: (§1) Seeds of a variety of test species are sown in standard soil in pots Amaranthus palmeri (AMAPA), Amaranthus retoflexus (AMARE), Setaria faberi (SETFA), Echinochloa crus-galli (ECHCG), Ipomoea hederacea (IPOHE)). After cultivation for one day (pre-emergence) or after 8 days cultivation (post-emergence) under controlled conditions in a glasshouse (at 24/16° C., day/night; 14 hours light; 65% humidity), the plants are sprayed with an aqueous spray solution derived from the formulation of the technical active ingredient in acetone/water (50:50) solution containing 0.5% Tween 20 (polyoxyethelyene sorbitan monolaurate, CAS RN 9005-64-5). Compounds are applied at 250 g/ha unless otherwise stated. The test plants are then grown in a glasshouse under controlled conditions in a glasshouse (at 24/16° C., day/night; 14 hours light; 65% humidity) and watered twice daily. After 13 days for pre and post-emergence, the test is evaluated for the percentage damage caused to the plant. The biological activities are shown in the following table on a five-point scale (5=81-100%; 4=61-80%; 3=41-60%; 2=21-40%; 1=0-20%).

[2] = system: Amaranthus retoflexus (AMARE); assay: Post-emergence herbicidal test, glasshouse
Description: as §1

[3] = system: Echinochloa crus-galli (ECHCG); assay: Post-emergence herbicidal test, glasshouse
Description: as §1

[4] = system: Ipomoea hederacea (IPOHE); assay: Post-emergence herbicidal test, glasshouse
Description: as §1

Setaria faberi (SETFA) [5] = assay: Post-emergence herbicidal test, glasshouse
Description: as §1

[6] = system: Amaranthus palmeri (AMAPA); assay: Pre-emergence herbicidal test, glasshouse
Description: as §1

[7] = system: Amaranthus retoflexus (AMARE); assay: Pre-emergence herbicidal test, glasshouse
Description: as §1

[8] = system: Echinochloa crus-galli (ECHCG); assay: Pre-emergence herbicidal test, glasshouse
Description: as §1

[9] = system: Ipomoea hederacea (IPOHE); assay: Pre-emergence herbicidal test, glasshouse
Description: as §1

Setaria faberi (SETFA) [10] = assay: Pre-emergence herbicidal test, glasshouse
Description: as §1

Row | SMILES | AMAPA percentage damage caused to the plant (five-point scale) [1] | AMARE percentage damage caused to the plant (five-point scale) [2] | ECHCG percentage damage caused to the plant (five-point scale) [3] | IPOHE percentage damage caused to the plant (five-point scale) [4] | SETFA percentage damage caused to the plant (five-point scale) (Setaria faberi (SETFA) [5]) | AMAPA percentage damage caused to the plant (five-point scale) [6] | AMARE percentage damage caused to the plant (five-point scale) [7] | ECHCG percentage damage caused to the plant (five-point scale) [8] | IPOHE percentage damage caused to the plant (five-point scale) [9] | SETFA percentage damage caused to the plant (five-point scale) (Setaria faberi (SETFA) [10])
1 | N#Cc1ccc(-n2nc(C(F)(F)F)cc2Cc2ncc(Cl)cn2)cc1 [Compound 1.007, 4-[5-[(5-chloropyrimidin-2-yl)methyl]-3-(trifluoromethyl)pyrazol-1-yl]benzonitrile] | 5 (5=81-100%) | 5 (5=81-100%) | 5 (5=81-100%) | 3 (3=41-60%) | 5 (5=81-100%) | 5 (5=81-100%) | 5 (5=81-100%) | 5 (5=81-100%) | 5 (5=81-100%) | 5 (5=81-100%)
2 | Cc1cnc(Cc2cc(C(F)(F)F)nn2-c2ccc(C(F)(F)F)cc2)nc1 [Compound 1.011] | 5 (5=81-100%) | 5 (5=81-100%) | 5 (5=81-100%) | 3 (3=41-60%) | 5 (5=81-100%) | 5 (5=81-100%) | 5 (5=81-100%) | 5 (5=81-100%) | 5 (5=81-100%) | 5 (5=81-100%)
3 | N#Cc1cnc(Cc2cc(C(F)(F)F)nn2-c2ccc(C(F)(F)F)cc2)nc1 [Compound 1.012] | 5 (5=81-100%) | 5 (5=81-100%) | 4 (4=61-80%) | 4 (4=61-80%) | 5 (5=81-100%) | 5 (5=81-100%) | 5 (5=81-100%) | 5 (5=81-100%) | 5 (5=81-100%) | 5 (5=81-100%)
4 | FC(F)(F)c1ccc(-n2nc(C(F)(F)F)cc2Cc2ncc(Br)cn2)cc1 [Compound 1.002, 5-bromo-2-[[5-(trifluoromethyl)-2-[4-(trifluoromethyl)phenyl]pyrazol-3-yl]methyl]pyrimidine] | 4 (4=61-80%) | 4 (4=61-80%) | 5 (5=81-100%) | 4 (4=61-80%) | 4 (4=61-80%) | 5 (5=81-100%) | 5 (5=81-100%) | 5 (5=81-100%) | 5 (5=81-100%) | 4 (4=61-80%)
5 | N#Cc1cc(Cc2ncc(Cl)cn2)n(-c2ccc(F)c(F)c2)n1 [Compound 1.025, 5-[(5-chloropyrimidin-2-yl)methyl]-1-(3,4-difluorophenyl)pyrazole-3-carbonitrile] | – | 5 (5=81-100%) | 5 (5=81-100%) | 4 (4=61-80%) | 5 (5=81-100%) | 5 (5=81-100%) | 5 (5=81-100%) | 5 (5=81-100%) | 5 (5=81-100%) | –
6 | FC(F)(F)c1ccc(-n2nc(C(F)(F)Cl)cc2Cc2ncc(Cl)cn2)cc1 [Compound 1.036] | – | 5 (5=81-100%) | 5 (5=81-100%) | 3 (3=41-60%) | 5 (5=81-100%) | 5 (5=81-100%) | 5 (5=81-100%) | 5 (5=81-100%) | 5 (5=81-100%) | 5 (5=81-100%)
7 | Fc1ccc(-n2nc(C(F)F)cc2Cc2ncc(Cl)cn2)cc1F [Compound 1.032, 5-chloro-2-[[5-(difluoromethyl)-2-(3,4-difluorophenyl)pyrazol-3-yl]methyl]pyrimidine] | 5 (5=81-100%) | 5 (5=81-100%) | 4 (4=61-80%) | 4 (4=61-80%) | – | 5 (5=81-100%) | 5 (5=81-100%) | 5 (5=81-100%) | 5 (5=81-100%) | –
8 | Cc1ccc(-n2nc(C(F)(F)F)cc2Cc2ncc(Cl)cn2)cc1 [Compound 1.037, 5-chloro-2-[[2-(p-tolyl)-5-(trifluoromethyl)pyrazol-3-yl]methyl]pyrimidine] | – | 5 (5=81-100%) | 4 (4=61-80%) | 3 (3=41-60%) | 5 (5=81-100%) | 5 (5=81-100%) | 5 (5=81-100%) | 5 (5=81-100%) | 1 (1=0-20%) | 5 (5=81-100%)
9 | FC(F)(F)c1ccc(-n2nc(C(F)(F)F)c(Cl)c2Cc2ncc(Br)cn2)cc1 [Compound 1.034, 5-bromo-2-[[4-chloro-5-(trifluoromethyl)-2-[4-(trifluoromethyl)phenyl]pyrazol-3-yl]methyl]pyrimidine] | 5 (5=81-100%) | 4 (4=61-80%) | 4 (4=61-80%) | 4 (4=61-80%) | – | 5 (5=81-100%) | 5 (5=81-100%) | 5 (5=81-100%) | 5 (5=81-100%) | –
10 | Fc1cc(-n2nc(C(F)(F)F)cc2Cc2ncc(Cl)cn2)cnc1Cl [Compound 1.026, 5-chloro-2-[[2-(6-chloro-5-fluoro-3-pyridyl)-5-(trifluoromethyl)pyrazol-3-yl]methyl]pyrimidine] | – | 5 (5=81-100%) | 5 (5=81-100%) | 2 (2=21-40%) | 5 (5=81-100%) | 5 (5=81-100%) | 5 (5=81-100%) | 5 (5=81-100%) | 5 (5=81-100%) | –
